Data reported in paper PMC6979384, “Characterization of the plant homeodomain (PHD) reader family for their histone tail interactions” (Epigenetics & Chromatin, 2020).

Assays:
Assay in all cases: Histone peptide microarray
Type in all cases: binding, human
Conditions in all cases: total n = 4
PHF23 = system: PHF23
Method in brief: (§1)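 Recombinant GST-PHD protein at 0.5 μM; 293-member modified histone peptide array; signals averaged from four repeats ± SD.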

KDM5B (1) = system: KDM5B (1)
Method in brief: as §1

ING2 = system: ING2
Method in brief: as §1

CHD5 (PCC) = system: CHD5 (PCC)
Method in brief: as §1

KDM4C (TTP) = system: KDM4C (TTP)
Method in brief: as §1

KDM5A (3) = system: KDM5A (3)
Method in brief: as §1

TAF3 = system: TAF3
Method in brief: as §1

BPTF (PB) = system: BPTF (PB)
Method in brief: as §1

KDM7A = system: KDM7A
Method in brief: as §1

DIDO1 = system: DIDO1
Method in brief: as §1

PHRF1 (RP) = system: PHRF1 (RP)
Method in brief: as §1

MORC3 (CW) = system: MORC3 (CW)
Method in brief: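 Each reader, produced as a GST fusion and purified, was tested at 0.5 μM on synthetic histone peptides (293 in total) carrying single or combinatorial marks. Intensities averaged over four replicates.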

ING4 = system: ING4
Method in brief: as §1

DPF2 (PPC2W2) = system: DPF2 (PPC2W2)
Method in brief: as §1

KDM5A (1) = system: KDM5A (1)
Method in brief: as §1

TRIM66 (PB) = system: TRIM66 (PB)
Method in brief: as §1

SP140L = system: SP140L
Method in brief: as §1

AIRE (PP) = system: AIRE (PP)
Method in brief: as §1

BAZ2B = system: BAZ2B
Method in brief: as §1

ING5 = system: ING5
Method in brief: as §1

PHF2 = system: PHF2
Method in brief: as §1

KDM5B (3) = system: KDM5B (3)
Method in brief: as §1

PHF8 = system: PHF8
Method in brief: as §1

ING3 = system: ING3
Method in brief: as §1

PHF21A = system: PHF21A
Method in brief: as §1

PHF13 = system: PHF13
Method in brief: as §1

ING1 = system: ING1
Method in brief: as §1

MLL5 = system: MLL5
Method in brief: as §1

CHD5 (PPCC) = system: CHD5 (PPCC)
Method in brief: as §1

CHD4 (PPCC) = system: CHD4 (PPCC)
Method in brief: as §1

RAG2 = system: RAG2
Method in brief: as §1

[1] = sheet "Array Heatmap", GST-tagged reader, histone peptide array

## H3K4me2 + K9ac + K18ac: H3 1-20
PHF23; GST-tagged PHF23, sheet Array Heatmap, each array performed twice
  Array Heatmap signal (histone peptide microarray): 0.6826
KDM5B (1); GST-tagged KDM5B (1), sheet Array Heatmap, each array performed twice
  Array Heatmap signal (histone peptide microarray): 0.595
ING2; GST-tagged ING2, sheet Array Heatmap, each array performed twice
  Array Heatmap signal (histone peptide microarray): 0.7129
CHD5 (PCC); GST-tagged CHD5 (PCC = PHD + Dual Chromodomain), sheet Array Heatmap, each array performed twice
  Array Heatmap signal (histone peptide microarray): 0.7098
KDM4C (TTP); GST-tagged KDM4C (TTP = Tandem Tudor domain + PHD), sheet Array Heatmap, each array performed twice
  Array Heatmap signal (histone peptide microarray): 0.4492
KDM5A (3); GST-tagged KDM5A (3), sheet Array Heatmap, each array performed twice
  Array Heatmap signal (histone peptide microarray): 0.7199
TAF3; GST-tagged TAF3, sheet Array Heatmap, each array performed twice
  Array Heatmap signal (histone peptide microarray): 0.4004
BPTF (PB); GST-tagged BPTF (PB = PHD + Bromodomain), sheet Array Heatmap, each array performed twice
  Array Heatmap signal (histone peptide microarray): 0.3833
KDM7A; GST-tagged KDM7A, sheet Array Heatmap, each array performed twice
  Array Heatmap signal (histone peptide microarray): 0.3188
DIDO1; GST-tagged DIDO1, sheet Array Heatmap, each array performed twice
  Array Heatmap signal (histone peptide microarray): 0.8235
PHRF1 (RP); GST-tagged PHRF1 (RP), sheet Array Heatmap, each array performed twice
  Array Heatmap signal (histone peptide microarray): 0.5931
MORC3 (CW); GST-tagged MORC3 (CW = CW-type Zn-finger), sheet Array Heatmap, each array performed twice
  Array Heatmap signal (histone peptide microarray): 0.6581
ING4; GST-tagged ING4, sheet Array Heatmap, each array performed twice
  Array Heatmap signal (histone peptide microarray): 0.4671
DPF2 (PPC2W2); GST-tagged DPF2 (PPC2W2 = Dual PHD + C2W2-type Zn-finger), sheet Array Heatmap, each array performed twice
  Array Heatmap signal (histone peptide microarray): 0.6346
KDM5A (1); GST-tagged KDM5A (1), sheet Array Heatmap, each array performed twice
  Array Heatmap signal (histone peptide microarray): 0.4202
TRIM66 (PB); GST-tagged TRIM66 (PB = PHD + Bromodomain), sheet Array Heatmap, each array performed twice
  Array Heatmap signal (histone peptide microarray): 0.6398
SP140L; GST-tagged SP140L, sheet Array Heatmap, each array performed twice
  Array Heatmap signal (histone peptide microarray): 0.3079
AIRE (PP); GST-tagged AIRE (PP), sheet Array Heatmap, each array performed twice
  Array Heatmap signal (histone peptide microarray): 0.3953
BAZ2B; GST-tagged BAZ2B, sheet Array Heatmap, each array performed twice
  Array Heatmap signal (histone peptide microarray): 0.4481
ING5; GST-tagged ING5, sheet Array Heatmap, each array performed twice
  Array Heatmap signal (histone peptide microarray): 0.3511
PHF2; GST-tagged PHF2, sheet Array Heatmap, each array performed twice
  Array Heatmap signal (histone peptide microarray): 0.8135
KDM5B (3); GST-tagged KDM5B (3), sheet Array Heatmap, each array performed twice
  Array Heatmap signal (histone peptide microarray): 0.5774
PHF8; GST-tagged PHF8, sheet Array Heatmap, each array performed twice
  Array Heatmap signal (histone peptide microarray): 0.4748
ING3; GST-tagged ING3, sheet Array Heatmap, each array performed twice
  Array Heatmap signal (histone peptide microarray): 0.5192
PHF21A; GST-tagged PHF21A, sheet Array Heatmap, each array performed twice
  Array Heatmap signal (histone peptide microarray): 0.4382
PHF13; GST-tagged PHF13, sheet Array Heatmap, each array performed twice
  Array Heatmap signal (histone peptide microarray): 0.5893
ING1; GST-tagged ING1, sheet Array Heatmap, each array performed twice
  Array Heatmap signal (histone peptide microarray): 0.6509
MLL5; GST-tagged MLL5, sheet Array Heatmap, each array performed twice
  Array Heatmap signal (histone peptide microarray): 0.5921
CHD5 (PPCC); GST-tagged CHD5 (PPCC = Dual PHD + Dual Chromodomain), sheet Array Heatmap, each array performed twice
  Array Heatmap signal (histone peptide microarray): 0.5253
CHD4 (PPCC); GST-tagged CHD4 (PPCC = Dual PHD + Dual Chromodomain), sheet Array Heatmap, each array performed twice
  Array Heatmap signal (histone peptide microarray): 0.5347
RAG2; GST-tagged RAG2, sheet Array Heatmap, each array performed twice
  Array Heatmap signal (histone peptide microarray): 0.3927

## H3K4me2 + T6p: H3 1-20
PHF23; [1]
  Array Heatmap signal, PHF23: 0.5061
KDM5B (1); [1]
  Array Heatmap signal, KDM5B (1): 0.6237
ING2; [1]
  Array Heatmap signal, ING2: 0.6785
CHD5 (PCC); [1]
  Array Heatmap signal, CHD5 (PCC): 0.7961
KDM4C (TTP); [1]
  Array Heatmap signal, KDM4C (TTP): 0.4526
KDM5A (3); [1]
  Array Heatmap signal, KDM5A (3): 0.5519
TAF3; [1]
  Array Heatmap signal, TAF3: 0.2971
BPTF (PB); [1]
  Array Heatmap signal, BPTF (PB): 0.3354
KDM7A; [1]
  Array Heatmap signal, KDM7A: 0.3717
DIDO1; [1]
  Array Heatmap signal, DIDO1: 0.7205
PHRF1 (RP); [1]
  Array Heatmap signal, PHRF1 (RP): 0.4464
MORC3 (CW); [1]
  Array Heatmap signal, MORC3 (CW): 0.4606
ING4; [1]
  Array Heatmap signal, ING4: 0.4083
DPF2 (PPC2W2); [1]
  Array Heatmap signal, DPF2 (PPC2W2): 0.6113
KDM5A (1); [1]
  Array Heatmap signal, KDM5A (1): 0.3957
TRIM66 (PB); [1]
  Array Heatmap signal, TRIM66 (PB): 0.586
SP140L; [1]
  Array Heatmap signal, SP140L: 0.3405
AIRE (PP); [1]
  Array Heatmap signal, AIRE (PP): 0.3956
BAZ2B; [1]
  Array Heatmap signal, BAZ2B: 0.3939
ING5; [1]
  Array Heatmap signal, ING5: 0.3133
PHF2; [1]
  Array Heatmap signal, PHF2: 0.5776
KDM5B (3); [1]
  Array Heatmap signal, KDM5B (3): 0.4514
PHF8; [1]
  Array Heatmap signal, PHF8: 0.3931
ING3; [1]
  Array Heatmap signal, ING3: 0.4685
PHF21A; [1]
  Array Heatmap signal, PHF21A: 0.4239
PHF13; [1]
  Array Heatmap signal, PHF13: 0.5699
ING1; [1]
  Array Heatmap signal, ING1: 0.5538
MLL5; [1]
  Array Heatmap signal, MLL5: 0.5839
CHD5 (PPCC); [1]
  Array Heatmap signal, CHD5 (PPCC): 0.4881
CHD4 (PPCC); [1]
  Array Heatmap signal, CHD4 (PPCC): 0.5639
RAG2; [1]
  Array Heatmap signal, RAG2: 0.2424
